# Read-outs that look alike come from different tables or passages of the source. Residues, ends and D or L forms follow the SMILES beside them.
# What was measured:
# [1] = system: Caco-2 cells (human intestinal epithelial cells); assay: Membrane strengthening experiment (TER recovery of barrier function after TNF-α); assay type: cell-based; settings: for function of strengthening the barrier function (membrane-strengthening ability): result in words, FIG. 1A-1H
# Escherichia coli MG1665 = assay: Minimum inhibitory concentration, spot-on-lawn method; assay type: cell-based
# [2] = Chicken growth test (body weight gain and feed conversion ratio); assay type: in vivo, broiler chickens; settings: for BWG / FCR: 0-3 weeks
# [3] = system: Lactobacillus salivarius AJ110152; assay: Minimum inhibitory concentration, spot-on-lawn method; assay type: cell-based; settings: for MIC: Ligilactobacillus salivarius
# [4] = system: Bacteroides fragilis JCM11019; assay: as above; assay type: cell-based
# [5] = system: Enterococcus faecalis AJ110149; assay: as above; assay type: cell-based
# [6] = system: Lactobacillus acidophilus AJ13778; assay: as above; assay type: cell-based
# [7] = system: Clostridium perfringens AJ3350; assay: microbe, parasite or virus in culture; assay type: cell-based; settings: for Minimum inhibitory concentration: indicator strain Clostridium perfringens AJ3350, GAM, 37° C.; for MIC: Clostridium perfringens, AJ3350, read-out: Minimum inhibitory concentration
# [8] = system: Bifidobacterium thermophilum AJ110569; assay: Minimum inhibitory concentration, spot-on-lawn method; assay type: cell-based
# [9] = system: Salmonella enterica AJ2785; assay: microbe, parasite or virus in culture; assay type: cell-based; settings: for MIC: Salmonella enterica, AJ2785, read-out: Minimum inhibitory concentration
# [10] = Metabolome analysis of intestinal tract contents and blood; assay type: in vivo, chickens; settings: in vivo
# From the text: It is thus considered that coated-Phe and coated-Tyr are assimilated by intestinal bacteria in feces and rapidly metabolized in blood.
# [11] = indicator strain Escherichia coli MG1665, LB, 37° C.
# [12] = Table 3, addition 10 ppm in feed, negative control = 100
# [13] = Table 4, addition 10 ppm in feed
# [14] = Table 6, addition 10 ppm, NC = 100%, listed as PC1 (W/Avilamycin)
# [15] = Table 6, addition 10 ppm, NC = 100%, listed as PC2 (W/Avilamycin)
# [16] = indicator strain Lactobacillus salivarius AJ110152, MRS, 37° C.
# [17] = indicator strain Bacteroides fragilis JCM11019, GAM, 37° C.
# [18] = indicator strain Enterococcus faecalis AJ110149, MRS, 30° C., ND = no effect detected
# [19] = material conc. 10 uM, TER barrier function recovery, 24 h
# [20] = material conc. 10 uM, comparison value with Ctr (TNFα alone), 24 h, 1.1 or more = membrane-strengthening ability
# [21] = indicator strain Lactobacillus acidophilus AJ13778, MRS, 37° C.
# [22] = indicator strain Bifidobacterium thermophilum AJ110569, GAM, 37° C.
# [23] = Escherichia coli, MG1665, read-out: Minimum inhibitory concentration
# [24] = indicator strain Lactobacillus salivarius AJ110152, MRS, 37° C., read-out: Minimum inhibitory concentration
# [25] = indicator strain Bacteroides fragilis JCM11019, GAM, 37° C., read-out: Minimum inhibitory concentration
# [26] = indicator strain Lactobacillus acidophilus AJ13778, MRS, 37° C., read-out: Minimum inhibitory concentration
# [27] = indicator strain Bifidobacterium thermophilum AJ110569, GAM, 37° C., read-out: Minimum inhibitory concentration
# [28] = indicator strain Escherichia coli MG1665, LB, 37° C., read-out: Minimum inhibitory concentration
# [29] = indicator strain Enterococcus faecalis AJ110149, MRS, 30° C., ND = no effect detected, read-out: Minimum inhibitory concentration
# [30] = material conc. 1 uM, comparison value with Ctr (TNFα alone), 24 h
# [31] = Table 4, addition 200 ppm (core material) in feed
# [32] = Homo sapiens, Caco-2, 24 h, read-out: Recovery ratio (%)
compound,measurement,setting,value
"CC1=C(/C=C/C(C)=C/C=C/C(C)=C/C=C/C=C(C)/C=C/C=C(C)/C=C/C2=C(C)C(=O)[C@@H](O)CC2(C)C)C(C)(C)C[C@H](O)C1=O [Astaxanthin, astaxanthin]",activity at 10 µg/mL,"[1]; Homo sapiens, Caco-2, material conc. 10 mg/L, TER barrier function recovery, 24 h, read-out: Recovery ratio (%)",132%
same,Recovery ratio/ctr,"[1]; material conc. 10 mg/L, comparison value with Ctr (TNFα alone), 24 h",1.14
same,function of strengthening the barrier function (membrane-strengthening ability),[1],observed to have the function of strengthening the barrier function
"COC[C@H]1O[C@@H](OC2OC[C@@H]3O[C@]4(O[C@H]3[C@H]2OC(=O)C(C)C)O[C@H](C)[C@@](O)(C(C)=O)[C@@H]2OCO[C@H]24)[C@@H](OC)[C@@H](O)[C@@H]1O[C@@H]1O[C@H](C)[C@H](OC)[C@H](O[C@H]2C[C@@]3(C)OC4(C[C@@H](O)[C@H](O[C@H]5C[C@@H](O)[C@H](OC(=O)c6c(C)c(Cl)c(O)c(Cl)c6OC)[C@@H](C)O5)[C@@H](C)O4)O[C@@H]3[C@@H](C)O2)[C@H]1O (stereo partly drawn) [Avilamycin, avilamycin]",Minimum inhibitory concentration,Escherichia coli MG1665; [11],>100000 µg/mL
same,BWG,[2]; [12],110%
same,FCR,[2]; [12],96%
same,BWG,[2]; [13],107%
same,FCR,[2]; [13],95%
same,BWG,[2]; [14],104%
same,FCR,[2]; [14],97%
same,BWG,[2]; [15],107%
same,FCR,[2]; [15],94%
same,Minimum inhibitory concentration,[3]; [16],8000 µg/mL
same,Minimum inhibitory concentration,[4]; [17],8000 µg/mL
same,Minimum inhibitory concentration,[5]; [18],2000 µg/mL
same,Recovery ratio (%),[1]; [19],127%
same,Recovery ratio/ctr,[1]; [20],1.10
same,function of strengthening the barrier function (membrane-strengthening ability),[1],had a function of strengthening the barrier function even at a low concentration
same,Minimum inhibitory concentration,[6]; [21],16000 µg/mL
same,Minimum inhibitory concentration,[7],1000 µg/mL
same,Minimum inhibitory concentration,[8]; [22],16000 µg/mL
same,Minimum inhibitory concentration,[9],>100000 µg/mL
"CC[C@H](C)[C@H](N)C1=N[C@H](C(=O)N[C@@H](CC(C)C)C(=O)N[C@H](CCC(=O)O)C(=O)N[C@H](C(=O)N[C@H]2CCCCNC(=O)[C@H](CC(N)=O)NC(=O)[C@@H](CC(=O)O)NC(=O)[C@H](Cc3cnc[nH]3)NC(=O)[C@@H](Cc3ccccc3)NC(=O)[C@H]([C@@H](C)CC)NC(=O)[C@@H](CCCN)NC2=O)[C@@H](C)CC)CS1 [Bacitracin] (HELM PEPTIDE1{[CC[C@H](C)[C@H](N)C1=N[C@H](C(=O)[*:2])CS1].L.[dE].I.K.[NCCC[C@@H](N[*:1])C(=O)[*:2]].I.[dF].H.[dD].N}$PEPTIDE1,PEPTIDE1,5:R3-11:R2$$$V2.0)",MIC,Escherichia coli MG1665; [23],> 100000 µg/mL
same,MIC,[3]; [24],32000 µg/mL
same,MIC,[4]; [25],> 100000 µg/mL
same,MIC,[6]; [26],32000 µg/mL
same,MIC,[8]; [27],4000 µg/mL
same,MIC,[9],> 100000 µg/mL
"CCCC(=O)O [Butylate, butyric acid]",activity at 2000 µM,"[1]; Homo sapiens, Caco-2, material conc. 2.0 mM, TER barrier function recovery, 24 h, read-out: Recovery ratio (%)",131%
same,Recovery ratio/ctr,"[1]; material conc. 2.0 mM, comparison value with Ctr (TNFα alone), 24 h",1.13
CN(C)[C@@H]1C(O)=C(C(N)=O)C(=O)[C@@]2(O)C(O)=C3C(=O)c4c(O)ccc(Cl)c4[C@@](C)(O)[C@H]3C[C@@H]12 [Chlortetracycline],MIC,Escherichia coli MG1665; [28],50000 µg/mL
same,MIC,[3]; [24],3000 µg/mL
same,MIC,[4]; [25],4000 µg/mL
same,MIC,[6]; [26],4000 µg/mL
same,MIC,[7],62 µg/mL
same,MIC,[8]; [27],16000 µg/mL
same,MIC,[9],50000 µg/mL
"COc1cc(/C=C/C(=O)CC(=O)/C=C/c2ccc(O)c(OC)c2)ccc1O [Curcumin, curcumin]",activity at 200 µM,"[1]; Homo sapiens, Caco-2, material conc. 200 uM, TER barrier function recovery, 24 h, read-out: Recovery ratio (%)",128%
same,Recovery ratio/ctr,"[1]; material conc. 200 uM, comparison value with Ctr (TNFα alone), 24 h",1.14
"NC(=O)CC[C@H](N)C(=O)O [Glutamine, glutamine]",activity at 20000 µM,"[1]; Homo sapiens, Caco-2, material conc. 20 mM, TER barrier function recovery, 24 h, read-out: Recovery ratio (%)",136%
same,Recovery ratio/ctr,"[1]; material conc. 20 mM, comparison value with Ctr (TNFα alone), 24 h",1.18
CC[C@@]1([C@@H]2O[C@@H]([C@H]3O[C@@](O)(CO)[C@H](C)C[C@@H]3C)C[C@@H]2C)CC[C@H]([C@]2(C)CC[C@]3(C[C@H](O)[C@@H](C)[C@@H]([C@@H](C)[C@@H](OC)[C@H](C)C(=O)O)O3)O2)O1 [Monensin],MIC,Escherichia coli MG1665; [23],> 100000 µg/mL
same,MIC,[3]; [24],1000 µg/mL
same,MIC,[5]; [29],2000 µg/mL
same,activity at 1 µM,"[1]; Homo sapiens, Caco-2, material conc. 1 uM, TER barrier function recovery, 24 h, read-out: Recovery ratio (%)",126%
same,Recovery ratio/ctr,[1]; [30],1.13
same,MIC,[6]; [26],2000 µg/mL
same,MIC,[7],1000 µg/mL
same,MIC,[8]; [27],2000 µg/mL
same,MIC,[9],> 100000 µg/mL
"N[C@@H](Cc1ccccc1)C(=O)O [Phe, phenylalanine]",detection in the intestinal tract contents or blood,[10],not detected
same,BWG,[2]; [31],106%
same,FCR,[2]; [31],98%
same,body weight gain effect and feed conversion ratio improvement effect,"[2]; result in words, healthy broilers, 0 to 21 days of age",A certain degree of body weight gain effect was confirmed
"O=C(O)C(O)Cc1ccccc1 (stereo not drawn) [Phenyl-lactate, phenyl lactatic acid]",Recovery ratio (%),"[1]; material conc. 0.2 mM, TER barrier function recovery, 24 h",129%
same,Recovery ratio/ctr,"[1]; material conc. 0.2 mM, comparison value with Ctr (TNFα alone), 24 h",1.12
CC[C@@H](C(=O)[C@@H](C)[C@@H](O)[C@H](C)[C@@H]1O[C@@H]([C@@H](CC)C(=O)O)CC[C@@H]1C)[C@H]1O[C@]2(C=C[C@@H](O)[C@]3(CC[C@@](C)([C@H]4CC[C@](O)(CC)[C@H](C)O4)O3)O2)[C@H](C)C[C@@H]1C [Salinomycin],MIC,Escherichia coli MG1665; [23],> 100000 µg/mL
same,MIC,"[3]; AJ110152, read-out: Minimum inhibitory concentration",1000 µg/mL
same,MIC,"[4]; Bacteroides fragilis, JCM11019, read-out: Minimum inhibitory concentration",64000 µg/mL
same,MIC,"[5]; Enterococcus faecalis, AJ110149, read-out: Minimum inhibitory concentration",500 µg/mL
same,activity at 1 µM,[1]; [32],124%
same,Recovery ratio/ctr,[1]; [30],1.10
same,MIC,"[6]; Lactobacillus acidophilus, AJ13778, read-out: Minimum inhibitory concentration",2000 µg/mL
same,MIC,[7],1000 µg/mL
same,MIC,"[8]; Bifidobacterium thermophilum, AJ110569, read-out: Minimum inhibitory concentration",2000 µg/mL
same,MIC,[9],> 100000 µg/mL
"N[C@@H](Cc1c[nH]c2ccccc12)C(=O)O [Tryptophan, tryptophan]",activity at 4000 µM,[1]; [32],128%
same,Recovery ratio/ctr,"[1]; material conc. 4 mM, comparison value with Ctr (TNFα alone), 24 h",1.11
CC[C@H]1OC(=O)C[C@@H](O)[C@H](C)[C@@H](O[C@@H]2O[C@H](C)[C@@H](O[C@H]3C[C@@](C)(O)[C@@H](O)[C@H](C)O3)[C@H](N(C)C)[C@H]2O)[C@@H](CC=O)C[C@@H](C)C(=O)/C=C/C(C)=C/[C@@H]1CO[C@@H]1O[C@H](C)[C@@H](O)[C@@H](OC)[C@H]1OC [Tylosin],MIC,Escherichia coli MG1665; [28],> 100000 µg/mL
same,MIC,[3]; [24],1000 µg/mL
same,MIC,[4]; [25],4000 µg/mL
same,MIC,[5]; [29],4000 µg/mL
same,activity at 10 µM,"[1]; Homo sapiens, Caco-2, material conc. 10 uM, TER barrier function recovery, 24 h, read-out: Recovery ratio (%)",135%
same,Recovery ratio/ctr,[1]; [20],1.17
same,MIC,[6]; [26],1000 µg/mL
same,MIC,[7],4000 µg/mL
same,MIC,[8]; [27],10 µg/mL
same,MIC,[9],> 100000 µg/mL
"CC(C)[C@H](N)C(=O)O [Valine, valine]",Recovery ratio/ctr,"[1]; 24 h, 200 µM",1.13
same,activity at 200 µM,"[1]; Homo sapiens, Caco-2, material conc. 0.2 mM, TER barrier function recovery, 24 h, read-out: Recovery ratio (%)",130%
Colistin,Minimum inhibitory concentration,Escherichia coli MG1665; [11],4000 µg/mL
same,Minimum inhibitory concentration,[3]; [16],>100000 µg/mL
same,Minimum inhibitory concentration,[4]; [17],>100000 µg/mL
same,Minimum inhibitory concentration,[5]; [18],>100000 µg/mL
same,Recovery ratio (%),"[1]; material conc. 1 uM, TER barrier function recovery, 24 h",130%
same,Recovery ratio/ctr,[1]; [30],1.13
same,function of strengthening the barrier function (membrane-strengthening ability),[1],had a function of strengthening the barrier function even at a low concentration
same,Minimum inhibitory concentration,[6]; [21],>100000 µg/mL
same,Minimum inhibitory concentration,[7],>100000 µg/mL
same,Minimum inhibitory concentration,[8]; [22],128000 µg/mL
same,Minimum inhibitory concentration,[9],>100000 µg/mL
Zinc Bacitracin,Recovery ratio (%),[1]; [19],124%
same,Recovery ratio/ctr,[1]; [20],1.10
